Values after ≈ are worked out from the molar mass of the structure shown.
Experiments:
Format in all cases: functional
Streptococcus sobrinus [1] = assay: Antimicrobial activity against Streptococcus sobrinus ATCC 27351 assessed assessed as reduction in bacterial growth at 1/8 times of drug MIC in the presence of Ampicillin by microdilution method
Streptococcus agalactiae [2] = assay: Ratio of MBC to MIC against Streptococcus agalactiae ATCC 13813
Streptococcus mutans [3] = assay: Antimicrobial activity against Streptococcus mutans ATCC 25175 assessed assessed as reduction in bacterial growth at 1/8 times of drug MIC in the presence of Ampicillin by microdilution method
Streptococcus sobrinus [4] = assay: Antimicrobial activity against Streptococcus sobrinus ATCC 27351 assessed assessed as reduction in bacterial growth at 1/4 times of drug MIC in the presence of Ampicillin by microdilution method
Streptococcus mutans [5] = assay: Antibiofilm activity against drug-resistant Streptococcus mutans ATCC 25175 assessed as inhibition of biofilm formation incubated for 24 hrs by crystal violet staining based microtiter plate method
Staphylococcus aureus [6] = assay: Antibacterial activity against Staphylococcus aureus ATCC 29213 assessed as inhibition of bacterial growth incubated for 24 hrs by microdilution assay
Staphylococcus aureus [7] = assay: Antibacterial activity against Staphylococcus aureus ATCC 43300 assessed as inhibition of bacterial growth incubated for 24 hrs by microdilution assay
Escherichia coli [8] = assay: Antibacterial activity against Escherichia coli EPEC E234969 assessed as inhibition of bacterial growth incubated for 24 hrs by microdilution assay
Enterococcus faecalis [9] = assay: Antibacterial activity against Enterococcus faecalis ATCC 29212 assessed as inhibition of bacterial growth incubated for 24 hrs by microdilution assay
Enterococcus faecalis [10] = assay: Antibiofilm activity against drug-resistant Enterococcus faecalis ATCC 51299 assessed as inhibition of biofilm formation incubated for 24 hrs by crystal violet staining based microtiter plate method
[11] = system: Staphylococcus epidermidis; assay: Antimicrobial activity against Staphylococcus epidermidis ATCC 12228 assessed assessed as reduction in bacterial growth at 1/4 times of drug MIC in the presence of Oxacillin by microdilution method
Streptococcus pyogenes [12] = assay: Antibacterial activity against Streptococcus pyogenes ATCC 19615 assessed as inhibition of bacterial growth incubated for 24 hrs by microdilution assay
Staphylococcus aureus [13] = assay: Antimicrobial activity against Staphylococcus aureus ATCC 29213 assessed assessed as reduction in bacterial growth at 1/8 times of drug MIC in the presence of vancomycin by microdilution method
Streptococcus agalactiae [14] = assay: Antibiofilm activity against drug-resistant Streptococcus agalactiae ATCC 13813 assessed as inhibition of biofilm formation incubated for 24 hrs by crystal violet staining based microtiter plate method
[15] = system: Staphylococcus epidermidis; assay: Antibacterial activity against Staphylococcus epidermidis ATCC 12228 assessed as inhibition of bacterial growth incubated for 24 hrs by microdilution assay
Streptococcus mutans [16] = assay: Ratio of MBC to MIC against Streptococcus mutans ATCC 25175
Staphylococcus aureus [17] = assay: Antimicrobial activity against Staphylococcus aureus MED 55 assessed assessed as reduction in bacterial growth at 1/8 times of drug MIC in the presence of vancomycin by microdilution method
Escherichia coli [18] = assay: Antibacterial activity against Escherichia coli STEC 2C1 assessed as inhibition of bacterial growth incubated for 24 hrs by microdilution assay
Enterococcus durans [19] = assay: Ratio of MBC to MIC against Enterococcus durans BIO 0114
[20] = system: Staphylococcus epidermidis; assay: Antibacterial activity against Staphylococcus epidermidis 70 D assessed as inhibition of bacterial growth incubated for 24 hrs by microdilution assay
Shigella flexneri = assay: Antibacterial activity against Shigella flexneri CCCD S006 assessed as inhibition of bacterial growth incubated for 24 hrs by microdilution assay
Proteus mirabilis = assay: Antibacterial activity against Proteus mirabilis ATCC 25933 assessed as inhibition of bacterial growth incubated for 24 hrs by microdilution assay
Escherichia coli [21] = assay: Antibacterial activity against Escherichia coli ETEC 2589093 assessed as inhibition of bacterial growth incubated for 24 hrs by microdilution assay
[22] = system: Staphylococcus epidermidis; assay: Ratio of MBC to MIC against Staphylococcus epidermidis ATCC 12228
[23] = system: Staphylococcus epidermidis; assay: Antimicrobial activity against Staphylococcus epidermidis 70 D assessed assessed as reduction in bacterial growth at 1/8 times of drug MIC in the presence of vancomycin by microdilution method
Enterococcus durans [24] = assay: Antimicrobial activity against Enterococcus durans BIO 0114 assessed assessed as reduction in bacterial growth at 1/8 times of drug MIC in the presence of Teicoplanin by microdilution method
Streptococcus sobrinus [25] = assay: Ratio of MBC to MIC against Streptococcus sobrinus ATCC 27351
Streptococcus agalactiae [26] = assay: Bactericidal activity against Streptococcus agalactiae ATCC 13813 assessed as bacterial killing incubated for 24 hrs by microdilution assay
Escherichia coli [27] = assay: Antibacterial activity against Escherichia coli EIEC E20851 assessed as inhibition of bacterial growth incubated for 24 hrs by microdilution assay
Acinetobacter baumannii = assay: Antibacterial activity against Acinetobacter baumannii ATCC 19606 assessed as inhibition of bacterial growth incubated for 24 hrs by microdilution assay; conditions: ATCC 19606 = CIP 70.34 = JCM 6841
Streptococcus pyogenes [28] = assay: Ratio of MBC to MIC against Streptococcus pyogenes ATCC 19615
Streptococcus sobrinus [29] = assay: Antibiofilm activity against drug-resistant Streptococcus sobrinus ATCC 27351 assessed as inhibition of biofilm formation incubated for 24 hrs by crystal violet staining based microtiter plate method
Enterococcus faecalis [30] = assay: Antibacterial activity against Enterococcus faecalis ATCC 51299 assessed as inhibition of bacterial growth incubated for 24 hrs by microdilution assay
[31] = system: Staphylococcus epidermidis; assay: Antimicrobial activity against Staphylococcus epidermidis ATCC 12228 assessed assessed as reduction in bacterial growth at 1/8 times of drug MIC in the presence of Oxacillin by microdilution method
Staphylococcus aureus [32] = assay: Antimicrobial activity against Staphylococcus aureus MED 55 assessed assessed as reduction in bacterial growth at 1/4 times of drug MIC in the presence of vancomycin by microdilution method
[33] = system: Staphylococcus epidermidis; assay: Antimicrobial activity against Staphylococcus epidermidis 70 D assessed assessed as reduction in bacterial growth at 1/4 times of drug MIC in the presence of vancomycin by microdilution method
Klebsiella pneumoniae = assay: Antibacterial activity against Klebsiella pneumoniae ATCC 700603 assessed as inhibition of bacterial growth incubated for 24 hrs by microdilution assay
[34] = system: Staphylococcus epidermidis; assay: Bactericidal activity against Staphylococcus epidermidis ATCC 12228 assessed as bacterial killing incubated for 24 hrs by microdilution assay
Enterococcus faecalis [35] = assay: Ratio of MBC to MIC against Enterococcus faecalis ATCC 51299
Streptococcus mutans [36] = assay: Antimicrobial activity against Streptococcus mutans ATCC 25175 assessed assessed as reduction in bacterial growth at 1/4 times of drug MIC in the presence of Ampicillin by microdilution method
Staphylococcus aureus [37] = assay: Antimicrobial activity against Staphylococcus aureus MED 55 assessed assessed as reduction in bacterial growth at 1/4 times of drug MIC in the presence of Oxacillin by microdilution method

## CC(C)=CCC/C(C)=C/CC/C(C)=C/CO [FARNESOL]
Streptococcus sobrinus [1]
  MIC: 0.125 µg/mL
Streptococcus agalactiae [2]
  Ratio: 2
Streptococcus mutans [3]
  MIC: 0.5 µg/mL
Streptococcus sobrinus [4]
  MIC: 0.125 µg/mL
Streptococcus mutans [5]
  MIC: 128 µg/mL (≈ 576 µM)
Staphylococcus aureus [6]
  MIC: > 1020 µg/mL
Staphylococcus aureus [7]
  MIC: 128 µg/mL (≈ 576 µM)
Escherichia coli [8]
  MIC: > 1020 µg/mL
Enterococcus faecalis [9]
  MIC: > 1020 µg/mL
Enterococcus faecalis [10]
  MIC: 128 µg/mL (≈ 576 µM)
[11]
  MIC: 0.25 µg/mL
Streptococcus pyogenes [12]
  MIC: 16 µg/mL (≈ 72 µM)
Staphylococcus aureus [13]
  MIC: 2 µg/mL
Streptococcus agalactiae [14]
  MIC: 4 µg/mL (≈ 18 µM)
[15]
  MIC: 32 µg/mL (≈ 144 µM)
Streptococcus mutans [16]
  Ratio: 4
Staphylococcus aureus [17]
  MIC: 2 µg/mL
Escherichia coli [18]
  MIC: > 1020 µg/mL
Enterococcus durans [19]
  Ratio: >4
[20]
  MIC: 64 µg/mL (≈ 288 µM)
Shigella flexneri
  MIC: > 1020 µg/mL
Proteus mirabilis
  MIC: > 1020 µg/mL
Escherichia coli [21]
  MIC: > 1020 µg/mL
[22]
  Ratio: >4
[23]
  MIC: 2 µg/mL
Enterococcus durans [24]
  MIC: 1 µg/mL
Streptococcus sobrinus [25]
  Ratio: 2
Streptococcus agalactiae [26]
  MBC: 32 µg/mL (≈ 144 µM)
Escherichia coli [27]
  MIC: > 1020 µg/mL
Acinetobacter baumannii
  MIC: > 1020 µg/mL
Streptococcus pyogenes [28]
  Ratio: 4
Streptococcus sobrinus [29]
  MIC: 8 µg/mL (≈ 36 µM)
Enterococcus faecalis [30]
  MIC: 128 µg/mL (≈ 576 µM)
[31]
  MIC: 0.25 µg/mL
Staphylococcus aureus [32]
  MIC: 2 µg/mL
[33]
  MIC: 2 µg/mL
Klebsiella pneumoniae
  MIC: > 1020 µg/mL
[34]
  MBC: > 128 µg/mL
Enterococcus faecalis [35]
  Ratio: >4
Streptococcus mutans [36]
  MIC: 0.5 µg/mL
Staphylococcus aureus [37]
  MIC: 128 µg/mL

— ChEMBL document CHEMBL4825691, “Antimicrobial, modulatory, and antibiofilm activity of tt-farnesol on bacterial and fungal strains of importance to human health” (2021)
